Active and inactive are the calls of the source. The rule behind the calls is not given here.
Biological target: T1, Vitamin D3 receptor (Homo sapiens) (UniProt P11473)
T1 sequence (whole entry): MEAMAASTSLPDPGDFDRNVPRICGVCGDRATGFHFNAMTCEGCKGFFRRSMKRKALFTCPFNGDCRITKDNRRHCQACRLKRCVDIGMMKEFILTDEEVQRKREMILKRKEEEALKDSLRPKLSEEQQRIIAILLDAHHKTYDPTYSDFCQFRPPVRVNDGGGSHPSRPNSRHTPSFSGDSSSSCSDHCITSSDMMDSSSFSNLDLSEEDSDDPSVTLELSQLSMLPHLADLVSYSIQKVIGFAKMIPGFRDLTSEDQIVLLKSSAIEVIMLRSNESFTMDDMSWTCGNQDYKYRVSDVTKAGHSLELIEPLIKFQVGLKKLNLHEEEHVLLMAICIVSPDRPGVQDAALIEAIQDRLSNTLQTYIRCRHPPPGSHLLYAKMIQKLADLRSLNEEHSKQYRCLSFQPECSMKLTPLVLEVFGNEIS
Test: Induction of vitamin D receptor-mediated differentiation of human HL60 cells at 10^-6 M by NBT reduction method
Type: cell-based
Conditions: HL-60

- Activity: Active
Compound: CCC(O)(CC)CCCCC12CCC(COCCC(O)CCO)(CC1)CC2 (stereo unspecified)

Source: ChEMBL document CHEMBL1949597, “Novel vitamin D receptor ligands bearing a spherical hydrophobic core structure--comparison of bicyclic hydrocarbon derivatives with boron cluster derivatives” (Bioorg Med Chem Lett, 2012)
